The values that follow come from patent US11291947B2, “Composition for removing sulfur-containing compound” (KURARAY CO., LTD., priority 2016, dated 2022).

Each structure is given as a SMILES string. Where two headings read alike, the source gives them in different places.

A short description of data set [1]: Hydrogen sulfide removal in distilled water (autoclave). Conditions: distilled water, 5,000 ppm added, 80° C., 5 hours. The procedure:
20 g of distilled water was put into a 100-mL autoclave equipped with a thermometer and a stirrer, and pressurized up to 0.3 MPa with a mixed gas having a composition of 1 vol % of hydrogen sulfide and 99 vol % of nitrogen introduced thereinto. This was stirred until the hydrogen sulfide concentration in the vapor phase part became constant, and then the hydrogen sulfide concentration in the vapor phase part in the autoclave was measured with a Kitagawa gas detector (here, a […] available from Komyo Rikagaku Kogyo K.K. was attached to the gas collector “AP-20”), and was 7,500 ppm by volume. Next, SAL was added thereto in an amount to be 5,000 ppm relative to the distilled water. The amount of SAL added was 1.19 mmol, and the amount of hydrogen sulfide existing in the apparatus was 0.10 mmol. Subsequently, the apparatus was heated up to 80° C. with stirring at 800 rpm to continue the reaction for 5 hours. After the reaction, the system was cooled down to room temperature, and the hydrogen sulfide concentration in the vapor phase part was measured and was 5,000 ppm by volume. The removal rate was 33%.
The same test as in Example 2 was carried out except that acrolein was used in place of SAL. After the reaction, the hydrogen sulfide concentration in the vapor phase part was measured and was 5,000 ppm by volume. The removal rate was 33%.

Data set [2] is classed as physicochemical. The procedure: 50 mL of each of SAL and acrolein was charged in 50-mL three-necked flask, and the contents were subjected to temperature rise to 50° C. in a nitrogen atmosphere. On the occasion when the content of each of SAL and acrolein immediately after the temperature rise was defined as 100%, a change of the content ratio was observed according to the calibration curve method by means of gas chromatography with an internal standard.
[Gas Chromatography Analysis]
Analysis Instrument: GC-14A (Available from Shimadzu Corporation) Detector: FID (Hydrogen Flame Ionization Detector)
Column used: DB-1701 (length: 50 m, film thickness: 1 μm, inner diameter: 0.32 mm) (available from Agilent Technologies)
Analysis conditions: Injection temperature: 250° C., detection temperature: 250° C.
Temperature rise conditions: 70° C.→(temperature rise at 5° C./min)→250° C.
Internal standard substance: Diglyme (diethylene glycol dimethyl ether)

For data set [3] the following is noted: cited from earlier work.
Data set [4] is described as follows: Hydrogen sulfide removal in kerosene (three-neck flask). Conditions: 20 g kerosene, 1.5 g added, room temperature, 5 hours. The procedure: 20 g of kerosene (available from FUJIFILM Wako Pure Chemical Corporation) was put into a 50-mL three-neck flask, and a mixed gas having a composition of 1 vol % of hydrogen sulfide and 99 vol % of nitrogen was made to circulate therein at a flow rate of 50 mL/min to thereby purge the vapor in the three-neck flask with stirring at 800 rpm. After 2 hours, the circulation of the mixed gas was stopped, then the three-neck flask was sealed up, and the hydrogen sulfide concentration in the vapor phase part in the three-neck flask was measured with a Kitagawa gas detector and was 8,200 ppm by volume. Next, 1.5 g of SAL was added thereto and reacted for 5 hours at room temperature with stirring the apparatus at 800 rpm. After the reaction, the hydrogen sulfide concentration in the vapor phase part in the three-neck flask was measured and was 5,300 ppm by volume. The removal rate was 35%.
After the reaction, the hydrogen sulfide concentration in the vapor phase part in the three-neck flask was measured and was 6,600 ppm by volume. The removal rate was 20%.

Data set [5] deals with Rat. Conditions: versus acrolein; cited from earlier work.
The format of data set [6] is physicochemical. Conditions: pH 1.7. As to the method: Each of SAL and acrolein was dissolved in 0.5 mol/L of phosphoric acid buffer solutions having a pH different from each other, thereby preparing 0.1 wt % solutions. 50 mL of each of the solutions was charged in a sample vial in a nitrogen atmosphere and stored at 23±2° C. On the occasion when the content of each of SAL and acrolein at the time of preparation was defined as 100%, a change of the content ratio was observed according to the absolute calibration curve by means of high-performance liquid chromatography analysis.
[Preparation of Phosphoric Acid Buffer Solution]
pH 1.7: 4.9 g of 75% phosphoric acid and 7.8 g of sodium dihydrogen phosphate dihydrate were dissolved in 200 mL of distilled water.
pH 6.2: 7.8 g of sodium dihydrogen phosphate dihydrate and 7.1 g of disodium hydrogen phosphate were dissolved in 200 mL of distilled water.
pH 8.1: 0.3 g of sodium dihydrogen phosphate dihydrate and 13.9 g of disodium hydrogen phosphate were dissolved in 200 mL of distilled water.
[High-Performance Liquid Chromatography Analysis]
Analysis Instrument: Prominence System (Available from Shimadzu Corporation)
Column used: Cadenza CD-C18 (length: […], inner diameter: 4.6 mm)
Developing solution: H2O/MeOH=45/55 (volume ratio), H3PO4=1 mol/L

Where [7] appears, read: 50° C., nitrogen atmosphere, 0 hour (defined as 100%).
[8] abbreviates: 50° C., nitrogen atmosphere, 2 hours elapsed.
[9] abbreviates: 50° C., nitrogen atmosphere, 4 hours elapsed.
[10] abbreviates: 50° C., nitrogen atmosphere, 6 hours elapsed.
Setting [11] is: 50° C., nitrogen atmosphere, 10 hours elapsed.

`C=CC=O` [Acrolein, acrolein, reference compound] displayed a removal rate in data set [1] of 33%. Further, the content ratio in data set [2] (setting [7]) is reported as 100.0%; in data set [2] (setting [8]), 99.5%; in data set [2] (setting [9]) it was 98.3%; in data set [2] (setting [10]), 98.1%; in data set [2] (setting [11]) it was 96.6%. For the same compound, the ratio lost in data set [2] (50° C., nitrogen atmosphere, after 10 hours) came out at 3.4%. Besides, the “Fire Service Act water solubility class” value in data set [3] is given as “water-insoluble”.
For the compound `CC(C)=CCCC(C)=CC=O` [Citral, 3,7-dimethyl-2,6-octadienal], the removal rate in data set [4] turned out to be 20%. For the same compound, the “toxicity and safety (comparison in words)” value in data set [5] is “extremely low in the toxicity and safe as compared with acrolein”.
As for `CC(C)=CC=O` [SAL, 3-methyl-2-butenal], the removal rate in data set [1] was found to be 33%; in data set [4], 35%. Also, the “thermal stability (comparison in words)” value in data set [2] is reported as “extremely high in the thermal stability as compared with acrolein”. Also, the content ratio in data set [2] (setting [7]) is reported as 100.0%; in data set [2] (setting [8]) it was 100.0%; in data set [2] (setting [9]), 100.0%; in data set [2] (setting [10]), 100.0%; in data set [2] (setting [11]) it was 99.9%. Besides, the “pH stability (comparison in words)” value in data set [6] is “extremely high in the pH stability as compared with acrolein”. For the same compound, the “Fire Service Act water solubility class” value in data set [3] is “water-insoluble”. Further, the “toxicity and safety (comparison in words)” value in data set [5] was “extremely low in the toxicity and safe as compared with acrolein”.
